Substitutions are numbered along the chain they refer to. Read-outs that look alike come from different tables or passages of the source. Each block holds one molecule with its values, some of them ahead of it.
Legend:
[1] = biological target: T1, rP2X2 K69C mutant receptor (Rattus norvegicus, UniProt P49653, K69C); test: Two-electrode voltage clamp of Xenopus oocytes expressing K69C mutant rP2X2; assay type: cell-based; settings: for Response after challenge compound (nA) 100 µM Zn / Response after challenge compound (nA) 1,000 µM ATP / Response after challenge compound (nA) pH 6.5: test compound 50 µM, 5 minutes; for binding to and activation of K69C receptors: tested for responses to zinc, pH 6.5 and ATP, then challenge with AM546 or MTSEA; for restoration of ability to respond to ATP after test compound: test compound 1 mM, 1 minute, then 1,000 µM ATP; for amplitude of response to 100 µM zinc: K69C after AM546 then MTSEA, N = 6
T1 construct: expressed in transfected cells; host or cells: Xenopus laevis oocytes (RNA injection)
T1 sequence (P49653 1-472 K69C): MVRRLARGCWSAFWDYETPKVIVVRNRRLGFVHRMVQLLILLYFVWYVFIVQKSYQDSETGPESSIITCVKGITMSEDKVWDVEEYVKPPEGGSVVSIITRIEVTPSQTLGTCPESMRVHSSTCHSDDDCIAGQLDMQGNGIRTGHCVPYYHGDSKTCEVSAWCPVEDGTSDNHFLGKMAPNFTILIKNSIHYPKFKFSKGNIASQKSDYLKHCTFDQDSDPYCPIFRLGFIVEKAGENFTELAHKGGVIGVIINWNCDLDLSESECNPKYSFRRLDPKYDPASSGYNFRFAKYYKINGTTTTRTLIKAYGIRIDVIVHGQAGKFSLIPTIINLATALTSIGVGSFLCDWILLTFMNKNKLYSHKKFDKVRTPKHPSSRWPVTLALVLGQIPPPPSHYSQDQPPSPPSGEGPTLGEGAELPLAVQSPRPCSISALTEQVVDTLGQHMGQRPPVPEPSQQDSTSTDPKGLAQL

[2] = biological target: T2, rP2X2 K308C mutant receptor (Rattus norvegicus, UniProt P49653, K308C); test: Two-electrode voltage clamp of Xenopus oocytes expressing K308C mutant rP2X2; assay type: cell-based; settings: for restoration of ability to respond to ATP after test compound: test compound 1 mM, 15 minutes, then 1,000 µM ATP
T2 construct: expressed in transfected cells; host or cells: Xenopus laevis oocytes (RNA injection)
T2 sequence (P49653 1-472 K308C): T1 sequence (P49653 1-472 K69C) with C69K, K308C

wild type rP2X2 [3] = biological target: T3, wild type rP2X2 (Rattus norvegicus, UniProt P49653); test: Two-electrode voltage clamp of Xenopus oocytes expressing wild type rP2X2; assay type: cell-based
T3 construct: expressed in transfected cells; host or cells: Xenopus laevis oocytes (RNA injection)
T3 sequence (P49653 1-472): T1 sequence (P49653 1-472 K69C) with C69K

[4] = system: P2X1 mutant homologous to K69A; settings: ref [28]; cited from earlier work
uninjected oocytes = test: Two-electrode voltage clamp of uninjected oocytes (control); assay type: cell-based, Xenopus laevis; settings: N = 14
Procedure: This study was carried out in strict accordance with the recommendations in the Guide for the Care and Use of Laboratory Animals of the National Institutes of Health. The protocol was approved by the University Committee on the Use and Care of Animals of the University of Michigan (Protocol 08396-4). The rP2X2 receptors were expressed in defolliculated stage V-VI Xenopus laevis oocytes. Oocytes were harvested using procedures that have been described in detail previously.
RNAs encoding wild type and mutant rP2X2 receptors were synthesized using the mMessage mMachine T7 kit (Life Technologies, Grand Island, NY). Each oocyte was injected with 50 nl of RNA (10–20 ng/µl). Two-electrode voltage clamp experiments were performed 2–5 days after RNA injection. Except where indicated otherwise, recordings were made at a holding potential of −50 mV. Recording electrodes were pulled from thin walled borosilicate glass and had resistances of 0.2–1 MΩ. Currents were recorded with a Turbo TEC-03 or TEC-10 voltage clamp amplifier (npi electronic GmBH, Tamm, Germany). Data acquisition was performed using a Digidata 1322A interface controlled by pCLAMP 9 or 10 (Molecular Devices, Sunnyvale, CA).
To regulate the delivery of most test solutions into the recording chamber, we used a gravity fed valve array. […]

[5] = biological target: T4, rP2X2 K69C/H319K double mutant (Rattus norvegicus, UniProt P49653, H319K/K69C); test: Two-electrode voltage clamp of Xenopus oocytes expressing K69C/H319K double mutant rP2X2; assay type: cell-based
T4 construct: expressed in transfected cells; host or cells: Xenopus laevis oocytes (RNA injection)
T4 sequence (P49653 1-472 K69C/H319K): T1 sequence (P49653 1-472 K69C) with H319K

wild type rP2X2 [6] = biological target: T3, wild type rP2X2; settings: cited from earlier work
[7] = AM546-treated K69C, no exogenous ATP

Molecule: C[N+](C)(C)CCSS(C)(=O)=O.[Cl-] [MTSET, [2-(Trimethylammonium)ethyl] Methanethiosulfonate Chloride]
restoration of ability to respond to ATP after test compound [1]: None of these compounds restored the ability
restoration of ability to respond to ATP after test compound [2]: None of these compounds restored the ability

Molecule: CSS(C)(=O)=O [MMTS, Methyl Methanethiosulfonate]
restoration of ability to respond to ATP after test compound [1]: None of these compounds restored the ability
restoration of ability to respond to ATP after test compound [2]: None of these compounds restored the ability

Molecule: Cc1ccc(C(=O)Nc2ccc(S(=O)(=O)O)c3cc(S(=O)(=O)O)cc(S(=O)(=O)O)c23)cc1NC(=O)c1cccc(NC(=O)Nc2cccc(C(=O)Nc3cc(C(=O)Nc4ccc(S(=O)(=O)O)c5cc(S(=O)(=O)O)cc(S(=O)(=O)O)c45)ccc3C)c2)c1 [suramin, Suramin]
Hill coefficient (suramin activation) [1, 7]: 1.1±0.1
maximal response to suramin (inward current) [1, 7]: −450±51 nA
response to suramin ([1]; K69C prior to AM546 treatment, no exogenous ATP): no response
EC50 ([1]; read-out: suramin EC50 (activation)): 52 ± 5 µM
outward suramin currents due to inhibition of basal ATP (wild type rP2X2 [3]; cells with maximal currents to saturating ATP of about −20 µA): 10–500 nA
Hill coefficient (suramin) (wild type rP2X2 [3]; no exogenous ATP, N = 11): 1.2±0.1
IC50 (wild type rP2X2 [3]; read-out: suramin IC50 (outward current response)): 8.3 ± 1.1 µM
IC50 for suramin [4]: normal
average suramin response (uninjected oocytes): −1.3±1.9 nA

Molecule: [Cl-].[Cl-].[Zn+2] [zinc, Zinc chloride]
additional inward current in response to zinc ([5]; 50 µM zinc, after AM546, 'over' refers to magnitude): over −6 µA
current in response to zinc alone ([5]; 50 µM zinc, before AM546, no exogenous ATP, N = 12): −2.9±0.9 µA
amplitude of response to 100 µM zinc ([1]; with 1,000 µM ATP): 2.74±0.47 µA
amplitude of response to 100 µM zinc ([1]; without ATP): 0.39±0.06 µA
current as % of the maximum after addition of zinc (wild type rP2X2 [3]; 20 µM zinc, ATP giving 10% of maximum at pH 7.5): 80–90%
enhancement of the current by a zinc jump (wild type rP2X2 [6]; untreated wild type, EC10 ATP, pH 7.5, 20 µM zinc, ref [17], [20]): approximately 8 fold
average response to a zinc jump (uninjected oocytes; 50 µM zinc): +8.6±1.9 nA
Izinc average current ([2]; untreated K308C, 100 µM zinc, N = 6): −5±4 nA

Molecule: Nc1ncnc2c1ncn2C1OC(COP(=O)(O)OP(=O)(O)OP(=O)(O)O)C(O)C1O (stereo not drawn) [ATP, Disodium ATP]
EC50 [5]: ~145 µM
ATP response ([1]; AM546-modified K69C, 1,000 µM ATP, 'greater than' refers to magnitude): greater than −100 nA
EC50 ([1]; MTSEA-modified K69C): 924 ± 102 µM
Hill coefficient (ATP) ([1]; MTSEA-modified K69C): 1.4±0.1
inward current (wild type rP2X2 [3]; 1,000 µM ATP, same RNA concentration as K69C, 'over' refers to magnitude): over −20 µA
EC50 (wild type rP2X2 [3]; wild type rP2X2): 32 ± 1 µM
Hill Coefficient (typical value for wild type rP2X2) (wild type rP2X2 [6]; typical value used to estimate basal ATP levels, ref not given): 1.5
EC50 ([2]; MTSEA-modified K308C): 374 ± 35 µM
Hill coefficient (ATP) ([2]; MTSEA-modified K308C): 1.3±0.1

Next, values leading:

Response after challenge compound (nA) 100 µM Zn ([1]; then challenge compound AM-546): −10±9 nA
Response after challenge compound (nA) 1,000 µM ATP ([1]; then challenge compound AM-546): −10±3 nA
Response after challenge compound (nA) pH 6.5 ([1]; then challenge compound AM-546): −16±5 nA
binding to and activation of K69C receptors [1]: could bind to, but not activate
Molecule: Alexa Fluor 488 C5-maleimide [AM-488]

Response after challenge compound (nA) 100 µM Zn ([1]; then challenge compound MTSEA): −2±1 nA
Response after challenge compound (nA) 1,000 µM ATP ([1]; then challenge compound MTSEA): −26±7 nA
Response after challenge compound (nA) pH 6.5 ([1]; then challenge compound MTSEA): −7±5 nA
binding to and activation of K69C receptors [1]: could bind to, but not activate
Molecule: Alexa Fluor 594 C5-maleimide [AM-594]

Response after challenge compound (nA) 100 µM Zn ([1]; then challenge compound MTSEA): −9±4 nA
Response after challenge compound (nA) 1,000 µM ATP ([1]; then challenge compound MTSEA): −41±9 nA
Response after challenge compound (nA) pH 6.5 ([1]; then challenge compound MTSEA): −25±0 nA
binding to and activation of K69C receptors [1]: could bind to, but not activate
Molecule: Alexa Fluor 568 C5-maleimide [AM-568]
